From patent US6355799B1, “Substituted benzene compounds, process for their preparation, and herbicidal and defoliant compositions containing them” (ISK Americas Incorporated, priority 1997, dated 2002)

Tests used:
Assay type in all cases: in vivo
[1] = system: redroot pigweed (Amaranthus retroflexus, AMARE); assay: Pre-emerge test, greenhouse herbicide activity screening; details: rated 14 days after application, 0 = no damage, 100 = complete death
In short: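 Plants grown in 10 cm pots of sandy loam mix received acetone-dissolved compounds through a moving flat-fan nozzle. Doses ranged from 15 to 1000 g ai/ha. Pre-emerge pots were seeded one day earlier, post-emerge pots 8–21 days earlier. Fourteen days on, each pot was graded 0–100 for damage.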

[2] = system: field corn (Zea mays L., var. Dekalb 535, CORN); assay: Pre-emerge test, crop safety; details: rated 14 days after application, 0 = no damage, 100 = complete death
In short: (§1)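 Herbicidal damage is scored 0 (none) to 100 (complete plant death) two weeks after a simulated field spray. Rates span 15–1000 g ai/ha, delivered in acetone at 187 l/ha. For post-emergence treatments, plants have 2–3 leaves and the spray carries 0.25% v/v non-ionic surfactant.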

[3] = system: upland rice (Oryza sp., var. Tebonnet, RICE); assay: Pre-emerge test, crop safety; details: rated 14 days after application, 0 = no damage, 100 = complete death
In short: as §1

[4] = system: green foxtail (Setaria viridis, SETVI); assay: Pre-emerge test, greenhouse herbicide activity screening; details: rated 14 days after application, 0 = no damage, 100 = complete death
In short: (§2)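 Visual ratings on a 0-100 scale (0 no damage, 100 all plants dead) were taken at 14 days after treatment. Rates of 15-1000 g ai/ha in acetone, 187 l/ha, were sprayed onto soil one day after planting (pre-emerge) or onto 2-3 leaf plants with 0.25% v/v surfactant (post-emerge).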

[5] = system: large crabgrass (Digitaria sanguinalis, DIGSA); assay: as above; details: rated 14 days after application, 0 = no damage, 100 = complete death
In short: as §2

[6] = system: velvetleaf (Abutilon theophrasti, ABUTH); assay: as above; details: rated 14 days after application, 0 = no damage, 100 = complete death
In short: as §2

[7] = system: johnsongrass (Sorghum halepense, SORHA); assay: as above; details: rated 14 days after application, 0 = no damage, 100 = complete death
In short: as §2

[8] = system: barnyardgrass (Echinochloa crus-galli, ECHCG); assay: as above; details: rated 14 days after application, 0 = no damage, 100 = complete death
In short: as §2

[9] = system: ivyleaf morningglory (Ipomoea hederacea, IPOHE); assay: as above; details: rated 14 days after application, 0 = no damage, 100 = complete death
In short: as §2

[10] = system: lambsquarters (Chenopodium album, CHEAL); assay: as above; details: rated 14 days after application, 0 = no damage, 100 = complete death
In short: as §2

[11] = system: common ragweed (Ambrosia artemisizfolia L., AMBEL); assay: as above; details: rated 14 days after application, 0 = no damage, 100 = complete death
In short: as §2

[12] = system: sicklepod (Cassia obtusifolia, CASOB); assay: as above; details: rated 14 days after application, 0 = no damage, 100 = complete death
In short: as §2

[13] = system: green foxtail (Setaria viridis, SETVI); assay: Post-emerge test, greenhouse herbicide activity screening; details: post-emerge, 14 days after application, rating scale 0-100
In short: (§3)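 Applied at 15–1000 g ai/ha from acetone in 187 l/ha spray volume. Post-emergence applications included 0.25% v/v non-ionic surfactant and reached plants sown 8–21 days before. Pre-emergence applications were incorporated by surface watering. Efficacy or crop damage was rated on a 0–100 scale after 14 days.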

[14] = system: large crabgrass (Digitaria sanguinalis, DIGSA); assay: as above; details: post-emerge, 14 days after application, rating scale 0-100
In short: as §3

[15] = system: velvetleaf (Abutilon theophrasti, ABUTH); assay: as above; details: post-emerge, 14 days after application, rating scale 0-100
In short: as §3

[16] = system: johnsongrass (Sorghum halepense, SORHA); assay: as above; details: post-emerge, 14 days after application, rating scale 0-100
In short: as §3

[17] = system: redroot pigweed (Amaranthus retroflexus, AMARE); assay: as above; details: post-emerge, 14 days after application, rating scale 0-100
In short: as §3

[18] = system: barnyardgrass (Echinochloa crus-galli, ECHCG); assay: as above; details: post-emerge, 14 days after application, rating scale 0-100
In short: as §3

[19] = system: ivyleaf morningglory (Ipomoea hederacea, IPOHE); assay: as above; details: post-emerge, 14 days after application, rating scale 0-100
In short: as §3

[20] = system: lambsquarters (Chenopodium album, CHEAL); assay: as above; details: post-emerge, 14 days after application, rating scale 0-100
In short: as §3

[21] = system: common ragweed (Ambrosia artemisizfolia L., AMBEL); assay: as above; details: post-emerge, 14 days after application, rating scale 0-100
In short: as §3

[22] = system: sicklepod (Cassia obtusifolia, CASOB); assay: as above; details: post-emerge, 14 days after application, rating scale 0-100
In short: as §3

[23] = system: field corn (Zea mays L., var. Dekalb 535, CORN); assay: Post-emerge test, crop safety; details: post-emerge, 14 days after application, rating scale 0-100
In short: as §2

[24] = system: upland rice (Oryza sp., var. Tebonnet, RICE); assay: Post-emerge test, crop safety; details: post-emerge, 14 days after application, rating scale 0-100
In short: as §2

COc1c(Cl)cc(F)c(-n2c(=O)cc(C(F)(F)F)n(C)c2=O)c1NC(=O)c1ccc(F)cc1F [Compound 2-42, 3-[4-chloro-2-(2,4difluorobenzoyl)amino-6-fluoro-3-methoxyphenyl]-1-methyl-6-trifluoromethyl-2,4(1H 3H)-pyrimidinedione]
98: Pre-emerge phytotoxicity rating (0-100), crop damage, CORN ([2]; 250 g ai/ha)
65: phytotoxicity rating CASOB ([22]; 63 g ai/ha)
100: Pre-emerge Herbicidal Activity, phytotoxicity rating (0-100), AMARE ([1]; 63 g ai/ha) | Pre-emerge Herbicidal Activity, phytotoxicity rating (0-100), AMARE ([1]; 250 g ai/ha) | Pre-emerge Herbicidal Activity, phytotoxicity rating (0-100), SETVI ([4]; 63 g ai/ha) | Pre-emerge Herbicidal Activity, phytotoxicity rating (0-100), SETVI ([4]; 250 g ai/ha) | Pre-emerge Herbicidal Activity, phytotoxicity rating (0-100), DIGSA ([5]; 63 g ai/ha) | Pre-emerge Herbicidal Activity, phytotoxicity rating (0-100), DIGSA ([5]; 250 g ai/ha) | Pre-emerge Herbicidal Activity, phytotoxicity rating (0-100), ABUTH ([6]; 63 g ai/ha) | Pre-emerge Herbicidal Activity, phytotoxicity rating (0-100), ABUTH ([6]; 250 g ai/ha) | Pre-emerge Herbicidal Activity, phytotoxicity rating (0-100), SORHA ([7]; 250 g ai/ha) | Pre-emerge Herbicidal Activity, phytotoxicity rating (0-100), ECHCG ([8]; 63 g ai/ha) | Pre-emerge Herbicidal Activity, phytotoxicity rating (0-100), ECHCG ([8]; 250 g ai/ha) | Pre-emerge Herbicidal Activity, phytotoxicity rating (0-100), IPOHE ([9]; 63 g ai/ha) | Pre-emerge Herbicidal Activity, phytotoxicity rating (0-100), IPOHE ([9]; 250 g ai/ha) | Pre-emerge Herbicidal Activity, phytotoxicity rating (0-100), CHEAL ([10]; 63 g ai/ha) | Pre-emerge Herbicidal Activity, phytotoxicity rating (0-100), CHEAL ([10]; 250 g ai/ha) | Pre-emerge Herbicidal Activity, phytotoxicity rating (0-100), AMBEL ([11]; 63 g ai/ha) | Pre-emerge Herbicidal Activity, phytotoxicity rating (0-100), AMBEL ([11]; 250 g ai/ha) | Pre-emerge Herbicidal Activity, phytotoxicity rating (0-100), CASOB ([12]; 250 g ai/ha) | phytotoxicity rating ABUTH ([15]; 63 g ai/ha) | phytotoxicity rating ABUTH ([15]; 250 g ai/ha) | phytotoxicity rating AMARE ([17]; 250 g ai/ha) | phytotoxicity rating IPOHE ([19]; 63 g ai/ha) | phytotoxicity rating IPOHE ([19]; 250 g ai/ha) | phytotoxicity rating CHEAL ([20]; 250 g ai/ha) | phytotoxicity rating CASOB ([22]; 250 g ai/ha)
80: Pre-emerge Herbicidal Activity, phytotoxicity rating (0-100), CASOB ([12]; 63 g ai/ha) | phytotoxicity rating SETVI ([13]; 250 g ai/ha) | phytotoxicity rating ECHCG ([18]; 250 g ai/ha)
90: Pre-emerge phytotoxicity rating (0-100), crop damage, RICE ([3]; 63 g ai/ha) | phytotoxicity rating CHEAL ([20]; 63 g ai/ha) | phytotoxicity rating RICE ([24]; 250 g ai/ha)
85: Pre-emerge phytotoxicity rating (0-100), crop damage, CORN ([2]; 63 g ai/ha)
70: phytotoxicity rating AMBEL ([21]; 63 g ai/ha)
60: phytotoxicity rating CORN ([23]; 250 g ai/ha) | phytotoxicity rating RICE ([24]; 63 g ai/ha)
99: Pre-emerge phytotoxicity rating (0-100), crop damage, RICE ([3]; 250 g ai/ha)
30: phytotoxicity rating DIGSA ([14]; 250 g ai/ha) | phytotoxicity rating ECHCG ([18]; 63 g ai/ha)
50: phytotoxicity rating SETVI ([13]; 63 g ai/ha)
10: phytotoxicity rating SORHA ([16]; 63 g ai/ha) | phytotoxicity rating CORN ([23]; 63 g ai/ha)
0: phytotoxicity rating DIGSA ([14]; 63 g ai/ha)
95: Pre-emerge Herbicidal Activity, phytotoxicity rating (0-100), SORHA ([7]; 63 g ai/ha) | phytotoxicity rating SORHA ([16]; 250 g ai/ha) | phytotoxicity rating AMARE ([17]; 63 g ai/ha) | phytotoxicity rating AMBEL ([21]; 250 g ai/ha)

COc1c(Cl)cc(F)c(-n2c(=O)cc(C(F)(F)F)n(C)c2=O)c1NC(=O)c1ccc(C#N)cc1 [2-67]
99: Pre-emerge phytotoxicity rating (0-100), crop damage, CORN ([2]; 250 g ai/ha) | phytotoxicity rating IPOHE ([19]; 63 g ai/ha)
70: phytotoxicity rating RICE ([24]; 63 g ai/ha)
30: phytotoxicity rating SETVI ([13]; 250 g ai/ha)
95: Pre-emerge Herbicidal Activity, phytotoxicity rating (0-100), ECHCG ([8]; 250 g ai/ha) | phytotoxicity rating CORN ([23]; 250 g ai/ha)
0: phytotoxicity rating DIGSA ([14]; 63 g ai/ha) | phytotoxicity rating SORHA ([16]; 63 g ai/ha) | phytotoxicity rating ECHCG ([18]; 63 g ai/ha)
20: phytotoxicity rating SETVI ([13]; 63 g ai/ha) | phytotoxicity rating CORN ([23]; 63 g ai/ha)
40: phytotoxicity rating DIGSA ([14]; 250 g ai/ha) | phytotoxicity rating ECHCG ([18]; 250 g ai/ha)
90: Pre-emerge phytotoxicity rating (0-100), crop damage, CORN ([2]; 63 g ai/ha) | Pre-emerge phytotoxicity rating (0-100), crop damage, RICE ([3]; 63 g ai/ha) | Pre-emerge phytotoxicity rating (0-100), crop damage, RICE ([3]; 250 g ai/ha)
50: Pre-emerge Herbicidal Activity, phytotoxicity rating (0-100), ECHCG ([8]; 63 g ai/ha)
100: Pre-emerge Herbicidal Activity, phytotoxicity rating (0-100), AMARE ([1]; 63 g ai/ha) | Pre-emerge Herbicidal Activity, phytotoxicity rating (0-100), AMARE ([1]; 250 g ai/ha) | Pre-emerge Herbicidal Activity, phytotoxicity rating (0-100), SETVI ([4]; 63 g ai/ha) | Pre-emerge Herbicidal Activity, phytotoxicity rating (0-100), SETVI ([4]; 250 g ai/ha) | Pre-emerge Herbicidal Activity, phytotoxicity rating (0-100), DIGSA ([5]; 63 g ai/ha) | Pre-emerge Herbicidal Activity, phytotoxicity rating (0-100), DIGSA ([5]; 250 g ai/ha) | Pre-emerge Herbicidal Activity, phytotoxicity rating (0-100), ABUTH ([6]; 63 g ai/ha) | Pre-emerge Herbicidal Activity, phytotoxicity rating (0-100), ABUTH ([6]; 250 g ai/ha) | Pre-emerge Herbicidal Activity, phytotoxicity rating (0-100), SORHA ([7]; 250 g ai/ha) | Pre-emerge Herbicidal Activity, phytotoxicity rating (0-100), IPOHE ([9]; 63 g ai/ha) | Pre-emerge Herbicidal Activity, phytotoxicity rating (0-100), IPOHE ([9]; 250 g ai/ha) | Pre-emerge Herbicidal Activity, phytotoxicity rating (0-100), CHEAL ([10]; 63 g ai/ha) | Pre-emerge Herbicidal Activity, phytotoxicity rating (0-100), CHEAL ([10]; 250 g ai/ha) | Pre-emerge Herbicidal Activity, phytotoxicity rating (0-100), AMBEL ([11]; 63 g ai/ha) | Pre-emerge Herbicidal Activity, phytotoxicity rating (0-100), AMBEL ([11]; 250 g ai/ha) | Pre-emerge Herbicidal Activity, phytotoxicity rating (0-100), CASOB ([12]; 63 g ai/ha) | Pre-emerge Herbicidal Activity, phytotoxicity rating (0-100), CASOB ([12]; 250 g ai/ha) | phytotoxicity rating ABUTH ([15]; 63 g ai/ha) | phytotoxicity rating ABUTH ([15]; 250 g ai/ha) | phytotoxicity rating AMARE ([17]; 63 g ai/ha) | phytotoxicity rating AMARE ([17]; 250 g ai/ha) | phytotoxicity rating IPOHE ([19]; 250 g ai/ha) | phytotoxicity rating CHEAL ([20]; 63 g ai/ha) | phytotoxicity rating CHEAL ([20]; 250 g ai/ha) | phytotoxicity rating AMBEL ([21]; 63 g ai/ha) | phytotoxicity rating AMBEL ([21]; 250 g ai/ha) | phytotoxicity rating CASOB ([22]; 63 g ai/ha) | phytotoxicity rating CASOB ([22]; 250 g ai/ha)
80: Pre-emerge Herbicidal Activity, phytotoxicity rating (0-100), SORHA ([7]; 63 g ai/ha) | phytotoxicity rating SORHA ([16]; 250 g ai/ha) | phytotoxicity rating RICE ([24]; 250 g ai/ha)
